Molecules are shown by their SMILES.

This note sets out measurements from patent EP1092438B1, “Pharmaceutical compositions containing growth-hormone inhibitors or their biologically active fragments for the treatment of uterine myomas” (De Leo, Vincenzo, priority 1999, dated 2006).

The series is described as follows: Routine blood parameters before and after treatment. The series is classed as in vivo. As to conditions: person. The text has this:
TABLE 1 Example 1 (patient)

Consider `CC(C)[C@@H]1NC(=O)[C@H](CCCCN)NC(=O)[C@@H](Cc2c[nH]c3ccccc23)NC(=O)[C@H](Cc2ccc(O)cc2)NC(=O)[C@@H](NC(=O)[C@H](N)Cc2ccc3ccccc3c2)CSSC[C@@H](C(=O)N[C@H](C(N)=O)[C@@H](C)O)NC1=O` [Lanreotide], for which the routine blood parameters result is “remained unvaried”.
